Assay results from patent US20230087609A1, “USE OF A SOLUBLE GUANYLATE CYCLASE (sGC) STIMULATOR OR OF A COMBINATION OF A sGC STIMULATOR AND AN sGC ACTIVATOR FOR CONDITIONS WHEREIN THE HEME GROUP OF sGC IS OXIDIZED OR WHEREIN sGC IS DEFICIENT IN HEME” (Universiteit Maastricht, priority 2020, published 2023).
“Also recorded” adds a separate entry of the source.

Target: T1, human sGCa1 and mutant sGCβ1H105F (apo-sGC) in Sf9 cells (Homo sapiens, UniProt Q02153, H105F)
T1 construct: His tag; expressed in transfected cells; host or cells: Sf9 cells co-infected with baculoviruses
T1 sequence (Q02153 1-619 H105F): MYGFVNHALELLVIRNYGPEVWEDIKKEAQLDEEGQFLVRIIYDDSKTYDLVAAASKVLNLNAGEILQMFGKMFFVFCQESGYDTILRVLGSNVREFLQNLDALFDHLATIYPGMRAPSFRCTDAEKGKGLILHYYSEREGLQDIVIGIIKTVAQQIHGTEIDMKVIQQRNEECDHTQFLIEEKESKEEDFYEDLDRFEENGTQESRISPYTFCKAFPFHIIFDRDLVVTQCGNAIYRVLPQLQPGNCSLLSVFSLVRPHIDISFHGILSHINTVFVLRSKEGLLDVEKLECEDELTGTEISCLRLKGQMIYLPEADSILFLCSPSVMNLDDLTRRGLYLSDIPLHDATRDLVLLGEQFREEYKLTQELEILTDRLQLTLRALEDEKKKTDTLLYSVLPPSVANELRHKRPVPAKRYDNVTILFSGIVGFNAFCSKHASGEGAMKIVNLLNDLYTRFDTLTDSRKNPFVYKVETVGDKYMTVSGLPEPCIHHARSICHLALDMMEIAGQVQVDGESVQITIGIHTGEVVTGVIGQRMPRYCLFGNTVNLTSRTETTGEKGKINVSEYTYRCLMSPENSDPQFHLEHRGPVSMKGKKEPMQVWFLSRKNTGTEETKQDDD
T1 sequence (Q02108 1-690 partner): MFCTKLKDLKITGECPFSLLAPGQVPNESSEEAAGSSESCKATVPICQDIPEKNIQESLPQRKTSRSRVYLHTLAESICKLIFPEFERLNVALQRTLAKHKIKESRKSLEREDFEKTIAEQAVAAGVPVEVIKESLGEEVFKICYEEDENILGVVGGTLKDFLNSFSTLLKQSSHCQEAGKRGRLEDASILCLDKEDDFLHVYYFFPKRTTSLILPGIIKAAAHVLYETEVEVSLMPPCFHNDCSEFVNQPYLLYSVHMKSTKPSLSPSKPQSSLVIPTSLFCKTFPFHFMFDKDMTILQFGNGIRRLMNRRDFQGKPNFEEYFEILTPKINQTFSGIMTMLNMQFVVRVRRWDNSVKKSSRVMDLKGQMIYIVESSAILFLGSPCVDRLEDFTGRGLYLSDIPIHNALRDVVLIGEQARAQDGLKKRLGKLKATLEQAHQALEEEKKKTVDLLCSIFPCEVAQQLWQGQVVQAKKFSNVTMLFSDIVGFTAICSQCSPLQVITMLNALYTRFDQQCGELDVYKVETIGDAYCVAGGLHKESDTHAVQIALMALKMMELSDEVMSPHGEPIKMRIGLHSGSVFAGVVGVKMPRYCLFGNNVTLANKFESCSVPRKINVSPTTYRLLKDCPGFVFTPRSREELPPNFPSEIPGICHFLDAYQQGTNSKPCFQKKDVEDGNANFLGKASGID
Test: cGMP accumulation in intact Sf9 cells expressing apo-sGC
Assay type: cell-based
Details: 10 micromole/L DETA-NONOate alone (FIG. 12A)
Procedure: Sf9 cells were co-infected with baculoviruses expressing human sGCa1 and mutant sGCβ1H105F. Forty-eight hours post-infection, the cells were treated with vehicle, NO donor, sGC stimulator, sGC activator or combination in 2 ml final volume of 10^6 cells per ml then the cells were incubated for 10 min at 27° C. The reaction was terminated by the addition of 0.1M of HCl, and cGMP was extracted on ice for 20 min. Cells were then sonicated to ensure complete lysis. The extract was then centrifuged and used for cGMP determination by an ELISA (Enzo Life Sciences).
Forty-eight hours post-infection, the cells were treated with vehicle, NO donor, sGC stimulator, sGC activator or combination in 2 ml final volume of 10^6 cells per ml and subsequently, the cells were incubated for 10 minutes at 27° C. The reaction was terminated by the addition of 0.1M of HCl, and cGMP was extracted on ice for 20 minutes. Cells were then sonicated to ensure complete lysis. The obtained cell extract was then centrifuged and used for cGMP determination by an ELISA. […] In the absence of any of the NO donor, the sGCs or the combination of these compounds, no cGMP synthesis is detected. It is now for the first time shown by the inventors that apo-sGC is still activatable even in the absence of an sGC activator known in the art. The presence of the sGCs facilitates NO binding to a secondary, heme-independent NO binding-site, and in addition, presence of an NO donor acts synergistically, when cGMP production is considered. Due to the invention, it is now made possible to treat patients with an sGCs, resulting in cGMP formation, under conditions wherein treatment with sGC activators has no effect at all or a too small effect, e.g. under conditions of ischemia, neonatal asphyxia, stroke, hypoxia, acute respiratory distress syndrome, asthma, oxidative (organ and/or tissue and/or cell) damage, etc. The invention provides a new treatment modality for these patients, which are often not sensitive (enough) for sGCa treatment. […] C.

NCCN(CCN)/[N+]([O-])=N/O [DETA-NONOate]
cGMP formation, NO donor only: hardly produced any cGMP; also recorded: no effect on cGMP formation
